Experimental data reported in US9884818B2, “Sulphamoylpyrrolamide derivatives and the use thereof as medicaments for the treatment of hepatitis B” (Janssen Sciences Ireland UC, priority 2013, dated 2018).

Key:
HBV [1] = test: Anti-HBV activity, HepG2.2.15 stable transfected cell line, HBV DNA from secreted virions by realtime PCR; assay type: cell-based; settings: Hepatitis B virus, HepG2.2.15, 144 h, HepG2.2.15 cells, 6 days of treatment, HBV DNA from secreted virions; read-out: HepG2 2.15 EC50
HBV [2] = test: Anti-HBV activity, HepG2.117 inducibly HBV producing cell line (Tet-off), intracellular HBV DNA by realtime PCR; assay type: cell-based; settings: Hepatitis B virus, HepG2.117, 72 h, HepG2.117 cells, 3 days of treatment, intracellular HBV DNA; read-out: HepG2 117 EC50
[3] = Cytotoxicity in HepG2 cells, Resazurin viability assay; settings: human, HepG2 cells, HepG2 4 days CC50 (μM), incubated for 4 days, Resazurin assay

| SMILES | EC50 (HBV [1]) [nM] | EC50 (HBV [2]) [nM] | CC50 at 4 days [3] [µM] |
| --- | --- | --- | --- |
| Cc1c(F)ccc(NC(=O)c2c(F)c(S(=O)(=O)NC3(C)COC3)cn2C)c1F [Compound 110, N-(2,4-Difluoro-3-methylphenyl)-3-fluoro-1-methyl-4-[(3-methyloxetan-3-yl)sulfamoyl]-1H-pyrrole-2-carboxamide] | 20 | 30 | > 25 |
| Cn1cc(S(=O)(=O)NC2(C)COC2)c(F)c1C(=O)Nc1cc(F)c(F)c(Cl)c1 [Compound 111, N-(3-Chloro-4,5-difluorophenyl)-3-fluoro-1-methyl-4-[(3-methyloxetan-3-yl)sulfamoyl]-1H-pyrrole-2-carboxamide] | 7 | 7 | > 25 |
| Cc1c(F)ccc(NC(=O)c2cc(S(=O)(=O)NC(C)(C)C)cn2C)c1F [Compound 112, 4-(tert-butylsulfamoyl)-N-(2,4-difluoro-3-methyl-phenyl)-1-methyl-pyrrole-2-carboxamide] | 60 | 90 | > 25 |
| Cn1cc(S(=O)(=O)NC2(C)COC2)c(F)c1C(=O)Nc1ccc(F)c(C#N)c1 [Compound 113, N-(3-cyano-4-fluoro-phenyl)-3-fluoro-1-methyl-4-[(3-methyloxetan-3-yl)sulfamoyl]pyrrole-2-carboxamide] | 30 | 20 | > 25 |
| Cn1cc(S(=O)(=O)NC2(C(N)=O)CC2)cc1C(=O)Nc1cc(F)c(F)c(Cl)c1 [Compound 114, 4-[(1-Carbamoylcyclopropyl)sulfamoyl]-N-(3-chloro-4,5-difluorophenyl)-1-methyl-1H-pyrrole-2-carboxamide] | 100 | 50 | > 25 |
| CNC(=O)C1(NS(=O)(=O)c2cc(C(=O)Nc3cc(F)c(F)c(Cl)c3)n(C)c2)CC1 [Compound 115, N-(3-Chloro-4,5-difluorophenyl)-1-methyl-4-{[1-(methylcarbamoyl)cyclopropyl]sulfamoyl}-1H-pyrrole-2-carboxamide] | 300 | 110 | > 25 |
| Cc1c(F)ccc(NC(=O)c2cc(S(=O)(=O)N[C@H](C)C(F)(F)F)cn2C)c1F [Compound 116, N-(2,4-Difluoro-3-methylphenyl)-1-methyl-4-{[(1R)-2,2,2-trifluoro-1-methylethyl]sulfamoyl}-1H-pyrrole-2-carboxamide] | 30 | 20 | > 25 |
| Cc1c(F)ccc(NC(=O)c2cc(S(=O)(=O)NC3(C(F)(F)F)CC3)cn2C)c1F [Compound 117, N-(2,4-Difluoro-3-methylphenyl)-1-methyl-4-{[1-(trifluoromethyl)-cyclopropyl]sulfamoyl}-1H-pyrrole-2-carboxamide] | 7 | 10 | > 25 |
| Cc1c(F)ccc(NC(=O)c2cc(S(=O)(=O)NC(C)(C)C(F)(F)F)cn2C)c1F [Compound 118, N-(2,4-Difluoro-3-methylphenyl)-1-methyl-4-[(2,2,2-trifluoro-1,1-dimethylethyl)sulfamoyl]-1H-pyrrole-2-carboxamide] | 50 | 20 | > 25 |
| Cc1c(F)ccc(NC(=O)c2cc(S(=O)(=O)N[C@@H](C)C(F)(F)F)cn2C)c1F [Compound 119, N-(2,4-Difluoro-3-methylphenyl)-1-methyl-4-{[(1S)-2,2,2-trifluoro-1-methylethyl]sulfamoyl}-1H-pyrrole-2-carboxamide] | 30 | 10 | > 25 |
| C[C@@H](NS(=O)(=O)c1cc(C(=O)Nc2ccc(F)c(Cl)c2F)n(C)c1)C(F)(F)F [Compound 120, N-(3-Chloro-2,4-difluorophenyl)-1-methyl-4-{[(1R)-2,2,2-trifluoro-1-methylethyl]sulfamoyl}-1H-pyrrole-2-carboxamide] | 30 | 30 | > 25 |
| Cn1cc(S(=O)(=O)NC2(C)COC2)cc1C(=O)Nc1ccc(F)c(Cl)c1F [Compound 121, N-(3-Chloro-2,4-difluorophenyl)-1-methyl-4-[(3-methyloxetan-3-yl)sulfamoyl]-1H-pyrrole-2-carboxamide] | 50 | 40 | > 25 |
| C[C@@H](NS(=O)(=O)c1cc(C(=O)Nc2cccc(C(F)(F)F)c2)n(C)c1)C(F)(F)F [Compound 122, 1-methyl-4-[[(1R)-2,2,2-trifluoro-1-methyl-ethyl]sulfamoyl]-N-[3-(trifluoromethyl)phenyl]pyrrole-2-carboxamide] | 70 | > 1000 | 13.1 |
| C[C@@H](NS(=O)(=O)c1cc(C(=O)Nc2ccc(F)c(Cl)c2)n(C)c1)C(F)(F)F [Compound 123, N-(3-Chloro-4-fluorophenyl)-1-methyl-4-{[(1R)-2,2,2-trifluoro-1-methylethyl]sulfamoyl}-1H-pyrrole-2-carboxamide] | 40 | 40 | > 25 |
| C[C@@H](NS(=O)(=O)c1cc(C(=O)Nc2ccc(F)c(Br)c2)n(C)c1)C(F)(F)F [Compound 124, N-(3-Bromo-4-fluorophenyl)-1-methyl-4-{[(1R)-2,2,2-trifluoro-1-methylethyl]sulfamoyl}-1H-pyrrole-2-carboxamide] | 40 | 40 | > 25 |
| C[C@@H](NS(=O)(=O)c1cc(C(=O)Nc2ccc(F)c(C(F)(F)F)c2)n(C)c1)C(F)(F)F [Compound 125, N-[4-Fluoro-3-(trifluoromethyl)phenyl]-1-methyl-4-{[(1R)-2,2,2-trifluoro-1-methylethyl]sulfamoyl}-1H-pyrrole-2-carboxamide] | 190 | 80 | 16.7 |
| Cn1cc(S(=O)(=O)NCC(F)F)cc1C(=O)Nc1ccc(F)c(C#N)c1 [Compound 126, N-(3-Cyano-4-fluorophenyl)-4-[(2,2-difluoroethyl)sulfamoyl]-1-methyl-1H-pyrrole-2-carboxamide] | 590 | 230 | > 25 |
| Cn1cc(S(=O)(=O)NCC(F)F)cc1C(=O)Nc1ccc(F)c(Br)c1 [Compound 127, N-(3-Bromo-4-fluorophenyl)-4-[(2,2-difluoroethyl)sulfamoyl]-1-methyl-1H-pyrrole-2-carboxamide] | 50 | 190 | > 25 |
| Cn1cc(S(=O)(=O)NCC(F)F)cc1C(=O)Nc1ccc(F)c(Cl)c1 [Compound 128, N-(3-Chloro-4-fluorophenyl)-4-[(2,2-difluoroethyl)sulfamoyl]-1-meth-1H-pyrrole-2-carboxamide] | 150 | 90 | > 25 |
| Cn1cc(S(=O)(=O)NCC(F)F)cc1C(=O)Nc1ccc(F)c(F)c1 [Compound 129, 4-[(2,2-Difluoroethyl)sulfamoyl]-N-(3,4-difluorophenyl)-1-methyl-1H-pyrrole-2-carboxamide] | 170 | 80 | > 25 |
| Cn1cc(S(=O)(=O)NCC(F)F)cc1C(=O)Nc1cc(F)c(F)c(Cl)c1 [Compound 130, N-(3-Chloro-4,5-difluorophenyl)-4-[(2,2-difluoroethyl)sulfamoyl]-1-methyl-1H-pyrrole-2-carboxamide] | 90 | 150 | > 25 |
| Cn1cc(S(=O)(=O)NCC(F)(F)F)cc1C(=O)Nc1ccc(F)c(Cl)c1 [Compound 131, N-(3-Chloro-4-fluorophenyl)-1-methyl-4-[(2,2,2-trifluoroethyl)sulfamoyl]-1H-pyrrole-2-carboxamide] | 10 | 10 | > 25 |
| Cn1cc(S(=O)(=O)NCC(F)(F)F)cc1C(=O)Nc1ccc(F)c(F)c1 [Compound 132, N-(3,4-Difluorophenyl)-1-methyl-4-[(2,2,2-trifluoroethyl)sulfamoyl]-1H-pyrrole-2-carboxamide] | 80 | 70 | > 25 |
| Cn1cc(S(=O)(=O)NCC(F)(F)F)cc1C(=O)Nc1cc(F)c(F)c(Cl)c1 [Compound 133, N-(3-Chloro-4,5-difluorophenyl)-1-methyl-4-[(2,2,2-trifluoroethyl)sulfamoyl]-1H-pyrrole-2-carboxamide] | 40 | 80 | > 25 |
| Cn1cc(S(=O)(=O)NCC(F)(F)F)cc1C(=O)Nc1ccc(F)c(C#N)c1 [Compound 134, N-(3-Cyano-4-fluorophenyl)-1-methyl-4-[(2,2,2-trifluoroethyl)sulfamoyl]-1H-pyrrole-2-carboxamide] | 180 | 130 | > 25 |
| Cn1cc(S(=O)(=O)NCC(F)(F)F)cc1C(=O)Nc1ccc(F)c(Br)c1 [Compound 135, N-(3-Bromo-4-fluorophenyl)-1-methyl-4-[(2,2,2-trifluoroethyl)sulfamoyl]-1H-pyrrole-2-carboxamide] | 20 | 260 | > 25 |
| Cc1c(S(=O)(=O)NC2(C)COC2)cc(C(=O)Nc2cc(F)c(F)c(Cl)c2)n1C [Compound 136, N-(3-Chloro-4,5-difluorophenyl)-1,5-dimethyl-4-[(3-methyloxetan-3-yl)sulfamoyl]-1H-pyrrole-2-carboxamide] | 60 | 60 | > 25 |
| Cc1c(S(=O)(=O)N[C@H](C)C(F)(F)F)cc(C(=O)Nc2cc(F)c(F)c(Cl)c2)n1C [Compound 137, N-(3-Chloro-4,5-difluorophenyl)-1,5-dimethyl-4-{[(1R)-2,2,2-trifluoro-1-methylethyl]sulfamoyl}-1H-pyrrole-2-carboxamide] | 30 | 40 | 16.5 |
